Activity calls are given as the source filed them.
What was measured:
[1] = HepG2 cell cytotoxicity, dose response, cytotoxicity control for Shn3 inhibitor project, CellTiter-Glo, cherry-picked (AID 624134); type: functional, cell-based
[2] = control 3'UTR Renilla luciferase suppression, dose response, counter-screen for Shn3 inhibitor project, cell-based, Clone20-Shn3RL, cherry-picked (AID 624133); type: functional
Cytochrome P450 1A2 = target: T1, Cytochrome P450 1A2 (Homo sapiens, UniProt P05177);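 also: PubChem cytochrome P450 panel assay, CYP1A2 panel member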
T1 sequence (P05177 whole entry): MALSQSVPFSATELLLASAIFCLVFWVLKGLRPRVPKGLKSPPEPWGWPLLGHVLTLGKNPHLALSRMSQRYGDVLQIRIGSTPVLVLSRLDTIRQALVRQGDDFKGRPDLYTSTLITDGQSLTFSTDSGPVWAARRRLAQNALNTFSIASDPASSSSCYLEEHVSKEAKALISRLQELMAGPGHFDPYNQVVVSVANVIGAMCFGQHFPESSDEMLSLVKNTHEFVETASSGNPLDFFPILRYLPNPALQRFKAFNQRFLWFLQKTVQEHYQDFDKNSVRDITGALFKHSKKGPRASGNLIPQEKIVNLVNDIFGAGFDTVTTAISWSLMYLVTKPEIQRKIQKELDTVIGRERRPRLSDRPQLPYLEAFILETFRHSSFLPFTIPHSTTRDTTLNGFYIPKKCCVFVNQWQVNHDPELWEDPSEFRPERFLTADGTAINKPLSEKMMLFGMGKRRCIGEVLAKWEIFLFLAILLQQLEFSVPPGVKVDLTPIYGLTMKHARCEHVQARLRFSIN

Cytochrome P450 2C9 = Cytochrome P450 2C9 (Homo sapiens, UniProt P11712)
Genome polyprotein = Genome polyprotein (dengue virus type 2, UniProt P29990); test: Dengue-2 NS5 methyltransferase inhibitors, primary screen, biochemical, confirmation dose response (AID 588689); type: functional
Protein skinhead-1 = target: T2, Protein skinhead-1 (Caenorhabditis elegans, UniProt P34707); type: functional
T2 sequence (P34707 whole entry): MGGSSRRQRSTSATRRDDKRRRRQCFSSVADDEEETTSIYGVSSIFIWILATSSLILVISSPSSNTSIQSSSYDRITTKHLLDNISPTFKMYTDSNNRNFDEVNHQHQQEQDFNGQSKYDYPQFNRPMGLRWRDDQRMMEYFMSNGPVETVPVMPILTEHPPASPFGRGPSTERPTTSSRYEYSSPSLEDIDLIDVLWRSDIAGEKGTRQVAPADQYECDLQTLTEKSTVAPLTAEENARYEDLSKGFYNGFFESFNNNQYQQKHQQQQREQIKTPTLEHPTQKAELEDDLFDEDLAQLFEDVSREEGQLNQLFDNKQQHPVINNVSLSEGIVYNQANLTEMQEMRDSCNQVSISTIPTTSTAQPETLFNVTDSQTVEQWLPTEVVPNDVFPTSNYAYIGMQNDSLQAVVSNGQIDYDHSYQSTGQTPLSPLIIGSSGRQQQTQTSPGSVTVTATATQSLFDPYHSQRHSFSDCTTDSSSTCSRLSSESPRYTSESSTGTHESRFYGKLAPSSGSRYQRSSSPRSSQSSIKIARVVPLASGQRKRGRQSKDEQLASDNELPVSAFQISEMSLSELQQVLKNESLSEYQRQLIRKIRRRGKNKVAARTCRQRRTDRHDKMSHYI

Cytochrome P450 3A4 = Cytochrome P450 3A4 (Homo sapiens, UniProt P08684);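 also: CYP3A4 tested as one member of a cytochrome P450 panel screen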
Cytochrome P450 2D6 = Cytochrome P450 2D6 (Homo sapiens, UniProt P10635);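 also: CYP2D6 member of a cytochrome P450 panel assay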
[3] = Shn3 3'UTR reporter inhibitors, dose response, cell-based, Clone20 osteoblasts, firefly luciferase, cherry-picked (AID 624132); type: functional;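 also: firefly luciferase luminescence from reporter carrying the Shn3 3'UTR in osteoblasts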
[4] = HEp-2 cell cytotoxicity, dose response, cytotoxicity control for RSV inhibitor project, HTS (AID 2410); type: functional; settings: human respiratory syncytial virus

Chain of Genome polyprotein (P29990 2492-3391 limits assumed): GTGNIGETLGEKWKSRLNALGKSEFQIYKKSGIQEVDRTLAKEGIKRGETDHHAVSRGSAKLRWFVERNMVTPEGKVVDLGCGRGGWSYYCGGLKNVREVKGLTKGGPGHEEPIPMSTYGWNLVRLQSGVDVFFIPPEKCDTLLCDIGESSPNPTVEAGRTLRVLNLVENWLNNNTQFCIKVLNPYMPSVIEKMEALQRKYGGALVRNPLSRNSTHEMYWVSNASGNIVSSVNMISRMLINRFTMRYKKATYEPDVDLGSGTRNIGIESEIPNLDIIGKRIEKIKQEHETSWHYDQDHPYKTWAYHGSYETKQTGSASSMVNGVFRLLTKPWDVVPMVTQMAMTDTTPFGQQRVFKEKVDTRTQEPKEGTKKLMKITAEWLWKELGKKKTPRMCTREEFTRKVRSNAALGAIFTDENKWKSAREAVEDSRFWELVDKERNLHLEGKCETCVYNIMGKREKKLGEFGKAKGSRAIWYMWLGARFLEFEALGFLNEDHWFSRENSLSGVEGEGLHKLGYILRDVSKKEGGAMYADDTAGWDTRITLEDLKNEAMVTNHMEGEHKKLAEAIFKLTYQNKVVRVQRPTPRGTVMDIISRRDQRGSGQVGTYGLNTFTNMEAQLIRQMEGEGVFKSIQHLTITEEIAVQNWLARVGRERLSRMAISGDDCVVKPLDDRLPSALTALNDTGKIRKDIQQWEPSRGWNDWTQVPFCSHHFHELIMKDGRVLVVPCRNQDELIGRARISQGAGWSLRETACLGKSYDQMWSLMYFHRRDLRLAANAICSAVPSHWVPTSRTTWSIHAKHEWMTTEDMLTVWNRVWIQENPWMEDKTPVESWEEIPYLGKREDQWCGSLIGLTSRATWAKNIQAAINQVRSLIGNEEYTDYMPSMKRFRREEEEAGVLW
Chain of Cytochrome P450 2C9 (P11712 whole entry): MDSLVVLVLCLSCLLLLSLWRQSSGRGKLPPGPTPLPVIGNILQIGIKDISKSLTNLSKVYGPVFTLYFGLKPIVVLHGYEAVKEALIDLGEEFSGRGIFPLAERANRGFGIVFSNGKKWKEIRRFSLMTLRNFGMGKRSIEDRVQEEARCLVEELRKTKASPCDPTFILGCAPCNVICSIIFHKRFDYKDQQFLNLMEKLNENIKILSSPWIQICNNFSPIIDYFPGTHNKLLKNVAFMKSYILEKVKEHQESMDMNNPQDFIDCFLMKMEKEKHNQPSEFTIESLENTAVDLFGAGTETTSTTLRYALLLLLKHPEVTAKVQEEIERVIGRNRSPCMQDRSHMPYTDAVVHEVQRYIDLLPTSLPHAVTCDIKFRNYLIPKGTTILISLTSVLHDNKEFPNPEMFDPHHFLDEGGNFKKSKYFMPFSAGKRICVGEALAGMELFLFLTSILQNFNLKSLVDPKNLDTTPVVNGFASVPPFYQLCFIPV
Chain of Cytochrome P450 3A4 (P08684 whole entry): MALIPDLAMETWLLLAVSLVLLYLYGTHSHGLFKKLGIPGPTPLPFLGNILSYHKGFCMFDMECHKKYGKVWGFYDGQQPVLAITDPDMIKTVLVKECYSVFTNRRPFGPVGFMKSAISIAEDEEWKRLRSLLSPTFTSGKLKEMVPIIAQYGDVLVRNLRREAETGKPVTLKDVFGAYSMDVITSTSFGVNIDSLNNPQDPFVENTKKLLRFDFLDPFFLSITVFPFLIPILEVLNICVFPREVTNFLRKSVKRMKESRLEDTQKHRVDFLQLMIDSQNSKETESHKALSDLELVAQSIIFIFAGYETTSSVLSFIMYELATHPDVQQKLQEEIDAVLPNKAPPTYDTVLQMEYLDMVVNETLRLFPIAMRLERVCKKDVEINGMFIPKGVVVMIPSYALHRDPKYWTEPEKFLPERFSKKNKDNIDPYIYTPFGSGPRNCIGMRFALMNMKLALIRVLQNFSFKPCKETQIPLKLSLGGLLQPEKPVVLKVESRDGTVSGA
Chain of Cytochrome P450 2D6 (P10635 whole entry): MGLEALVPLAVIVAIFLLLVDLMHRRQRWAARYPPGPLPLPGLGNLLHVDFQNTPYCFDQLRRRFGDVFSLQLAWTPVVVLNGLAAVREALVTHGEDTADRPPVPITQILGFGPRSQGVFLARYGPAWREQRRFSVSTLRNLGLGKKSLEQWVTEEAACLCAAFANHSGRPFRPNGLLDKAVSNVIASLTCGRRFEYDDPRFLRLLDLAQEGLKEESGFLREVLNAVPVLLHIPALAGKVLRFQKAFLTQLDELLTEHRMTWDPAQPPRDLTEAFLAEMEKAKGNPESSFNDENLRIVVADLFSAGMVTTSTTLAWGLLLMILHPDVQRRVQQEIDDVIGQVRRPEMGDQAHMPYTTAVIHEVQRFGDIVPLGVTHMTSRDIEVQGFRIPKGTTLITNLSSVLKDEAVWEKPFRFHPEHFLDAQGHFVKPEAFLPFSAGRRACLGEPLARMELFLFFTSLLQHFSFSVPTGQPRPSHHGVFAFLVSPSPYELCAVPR

Row | AC50 (Cytochrome P450 2C9) | IC50 (Protein skinhead-1) | Structure (SMILES) | also measured
1 |  | > 100 µM (inactive) | Cc1ccc(C)c(NC(=O)c2cc3ccccc3o2)c1 | 
2 |  | 52.3 µM (inactive) | COc1cc2ccccc2cc1C(=O)Nc1ccncc1 | 
3 |  | > 100 µM (inactive) | c1ccc2c(c1)NC(c1ccncc1)n1c-2nc2ccccc21 (stereo unspecified) | 
4 |  | > 100 µM (inactive) | CN(C)C(=O)c1cccc(-c2cnc3c(NC=O)cc(-c4ccc(N(C)C)cc4)cn23)c1 | 
5 | inconclusive |  | O=C(O)Cc1nn(Cc2ccc(Br)cc2F)c(=O)c2ccccc12 [PONALRESTAT] | AC50 (Cytochrome P450 1A2): 31.6 µM (inconclusive)

The next lines start with the compound.

Row | Structure (SMILES) | AC50 (Cytochrome P450 2C9) | IC50 (Protein skinhead-1) | also measured
6 | Nc1nc(S)nc2c1C1(CCCCC1)Cc1ccccc1-2 |  |  | AC50 [1]: > 70 µM (inactive); AC50 [2]: 25 µM (active)
7 | COc1ccc(Oc2ncc3nc(-c4cn(C)c5ccccc45)c(=O)n(CCC#N)c3n2)cc1 | inconclusive |  | AC50 (Cytochrome P450 1A2): 2 µM (inconclusive)
8 | C#CCOc1ccc(/C=C2/C(=O)ON=C2C)cc1Br |  |  | IC50 (Genome polyprotein): 80.7 µM (active)
9 | O=C(NC1CS(=O)(=O)CC1NCc1ccccc1)c1ccccc1 (stereo unspecified) |  | > 100 µM (inactive) | 
10 | O=C(NC1CCCC1)C1CC(c2ccc(F)cc2)=NO1 (stereo unspecified) | inconclusive |  | AC50 (Cytochrome P450 3A4): 25.1 µM (inconclusive)
11 | CN(C)c1ncc2nc(-c3cc(F)cc(F)c3)c(=O)n(CCC#N)c2n1 | inconclusive |  | AC50 (Cytochrome P450 3A4): 39.8 µM (inconclusive)
12 | CCC[C@H]1C[C@H](C(=O)N[C@H]([C@@H]2O[C@H](SC)[C@@H](O)[C@H](O)[C@@H]2O)[C@H](C)O)N(C)C1 | inconclusive |  | 
13 | Fc1ccc(-c2nnn(Cc3nc4ccccc4s3)n2)cc1 |  | 80.1 µM (inactive) | 
14 | CNc1nc(-c2ccccc2Cl)nc2ccccc12 | inconclusive |  | AC50 (Cytochrome P450 2D6): 39.8 µM (inconclusive)
15 | Cc1c(-c2nc(-c3cccnc3)no2)cccc1[N+](=O)[O-] |  | > 100 µM (inactive) | 
16 | O=C(COC(=O)[C@@H]1CCCN1C(=O)c1cccs1)NCCc1ccccc1 |  | > 100 µM (inactive) | 
17 | O=Nc1c(O)ccc2cc(S(=O)(=O)O)ccc12 |  |  | IC50 (Genome polyprotein): 45.7 µM (active)
18 | Clc1cccc(-c2nc3ccc(Br)cn3c2Cc2ccsc2)c1 |  | 54.8 µM (inactive) | 
19 | O=C(O)CN1C(=O)C=CC1=O |  |  | IC50 (Genome polyprotein): > 100 µM (active)
20 | CC(C)c1ccc(NC(=O)Nc2nc(C(N)C3CCCCC3)cs2)cc1 (stereo unspecified) |  |  | AC50 [3]: 7.29 µM (active); AC50 [1]: 13.8 µM (active); AC50 [2]: 4.41 µM (active)
21 | Cc1ccc(-c2nc3ccc(C(=O)O)cc3nc2-c2ccc(C)cc2)cc1 |  |  | CC50 [4]: 19.4 µM (active); IC50 (Genome polyprotein): 55.3 µM (active)
22 | COc1ccn(C)c(=O)c1C#N [RICININE] | inconclusive |  | 
